Values quoted from earlier work as cited in patent US10138195B2, “Organic compounds” (Givaudan, S. A., priority 2014, dated 2018).
Where two headings read alike, the source gives them in different places.

Legend:
[1] = system: reproductive organs of male rats
[2] = system: reproductive organs of male dogs
[3] = system: mice
[4] = system: guinea-pigs
[5] = system: primates
[6] = rats
[7] = dogs
[8] = system: glucose synthesis and fatty acid synthesis; conditions: in vitro (McCune et al)
[9] = system: male rats; conditions: male rats (Hunter et al.; Cagen et al.)

SMILES	Effects on the reproductive organs [1]	Effects on the reproductive organs [2]	Effects in studies [3]	Effects in studies [4]	Effects in studies [5]	Enzymatic degradation product [6]	Enzymatic degradation product [7]	Effect on glucose synthesis and fatty acid synthesis [8]	Testicular effects [9]
CC(C=O)Cc1ccc(C(C)(C)C)cc1 (stereo not drawn) [Lilial™, 3-(4-tert-butylphenyl)-2-methylpropanal]	toxic effects on the reproductive organs	toxic effects on the reproductive organs	No effects	No effects	No effects	enzymatically degraded in rats and dogs to tert-butyl benzoic acid (t-BBA)	enzymatically degraded in rats and dogs to tert-butyl benzoic acid (t-BBA)	–	–
CC(C)(C)c1ccc(C(=O)O)cc1 [tert-butyl benzoic acid]	–	–	–	–	–	–	–	inhibit glucose synthesis and fatty acid synthesis	cause testicular effects
